Literature values in publication PMC7395068, “The evolution of strategies to minimise the risk of human drug-induced liver injury (DILI) in drug discovery and development” (Archives of Toxicology, 2020).
Where a name gives a salt, the structure may show the parent alone. Read-outs that look alike come from different tables or passages of the source.

Experiments:
[1] = tested on: human hepatocytes; settings: cited from earlier work
[2] = cited from earlier work
[3] = human hepatocyte imaging, ref Xu 2008
[4] = assignment in Xu 2008, ref Xu 2008

SMILES: Cl[C@H]1[C@H](Cl)[C@@H](Cl)[C@@H](Cl)[C@H](Cl)[C@H]1Cl [1,2,3,4,5,6-hexachlorocyclohexane]
- Structural based (HCI) [1]: -VE
- In vivo DILI ([2]; in vivo): +VE

SMILES: CC(=O)c1ccc(S(=O)(=O)NC(=O)NC2CCCCC2)cc1 [acetohexamide]
- Structural based (HCI) ([1]; In vitro Assay, ref Xu 2008): +VE
- In vivo DILI ([2]; ref Xu 2008): +VE

SMILES: N[C@H](C(=O)O)[C@@H]1CC(Cl)=NO1 [acivicin]
- Structural based (HCI) ([1]; In vitro Assay, ref Xu 2008): -VE
- In vivo DILI ([2]; ref Xu 2008): -VE

SMILES: O.O=C1NC(=O)C(=O)C(=O)N1 [alloxan hydrate]
- Structural based (HCI) ([1]; In vitro Assay, ref Xu 2008): -VE
- In vivo DILI ([2]; ref O'Brien 2006): +VE
- In vivo DILI ([2]; ref Xu 2008): -VE

SMILES: C=C1[C@@H]2CC[C@H]3[C@]4(C)C[C@H](O[C@@H]5O[C@H](CO)[C@@H](OS(=O)(=O)O)[C@H](OS(=O)(=O)O)[C@H]5OC(=O)CC(C)C)C[C@@H](C(=O)O)[C@H]4CC[C@]3(C2)[C@H]1O [atractyloside]
- Structural based (HCI) ([1]; In vitro Assay, ref Xu 2008): +VE
- In vivo DILI ([2]; ref Xu 2008): +VE

SMILES: C[C@H]1C[C@H]2[C@@H]3CCC4=CC(=O)C=C[C@]4(C)[C@@]3(Cl)[C@@H](O)C[C@]2(C)[C@@]1(O)C(=O)CO [beclomethasone]
- Structural based (HCI) [1]: -VE
- In vivo DILI ([2]; in vivo): -VE

SMILES: C[C@H]1C[C@H]2[C@@H]3CCC4=CC(=O)C=C[C@]4(C)[C@@]3(F)[C@@H](O)C[C@]2(C)[C@@]1(O)C(=O)CO [betamethasone]
- Structural based (HCI) ([1]; In vitro Assay, ref Xu 2008): -VE
- In vivo DILI ([2]; ref Xu 2008): -VE

SMILES: CS(=O)(=O)OCCCCOS(C)(=O)=O [busulphan]
- Structural based (HCI) ([1]; In vitro Assay, ref Xu 2008): +VE
- In vivo DILI ([2]; ref Xu 2008): +VE

SMILES: [Cl][Cd][Cl] [cadmium chloride]
- Structural based (HCI) ([1]; In vitro Assay, ref Xu 2008): +VE
- In vivo DILI ([2]; ref Xu 2008): +VE

SMILES: COC(=O)Nc1nc2ccccc2[nH]1 [carbendazim]
- Structural based (HCI) [1]: -VE
- In vivo DILI ([2]; in vivo): +VE

SMILES: CC1(C)[C@@H](OC(=O)CCC(=O)[O-])CC[C@]2(C)[C@H]3C(=O)C=C4[C@@H]5C[C@@](C)(C(=O)[O-])CC[C@]5(C)CC[C@@]4(C)[C@]3(C)CC[C@@H]12.[Na+].[Na+] [carbenoxolone disodium]
- Structural based (HCI) [1]: -VE
- In vivo DILI ([2]; in vivo): -VE

SMILES: OCCN1CCN(CC/C=C2/c3ccccc3Sc3ccc(C(F)(F)F)cc32)CC1 [cis(z)-flupentixol]
- Structural based (HCI) [1]: -VE
- In vivo DILI ([2]; in vivo): -VE

SMILES: NC1CCN(c2c(F)cc3c(=O)c(C(=O)O)cn(C4CC4)c3c2Cl)C1 (stereo not shown) [clinafloxacin]
- Structural based (HCI) ([1]; In vitro Assay, ref Xu 2008): -VE
- In vivo DILI ([2]; ref Xu 2008): -VE

SMILES: N[C@H]1C(O)O[C@H](CO)[C@H](O)[C@@H]1O (stereo partly drawn) [d-galactosamine]
- Structural based (HCI) [1]: -VE
- In vivo DILI ([2]; in vivo): +VE

SMILES: CC(C)N(CCC(C(N)=O)(c1ccccc1)c1ccccn1)C(C)C (stereo not shown) [disopyramide phosphate]
- Structural based (HCI) ([1]; In vitro Assay, ref Xu 2008): -VE
- In vivo DILI ([2]; ref Xu 2008): +VE

SMILES: CCO.C[C@H]1c2cccc(O)c2C(O)=C2C(=O)[C@]3(O)C(O)=C(C(N)=O)C(=O)[C@@H](N(C)C)[C@@H]3[C@@H](O)[C@@H]21.C[C@H]1c2cccc(O)c2C(O)=C2C(=O)[C@]3(O)C(O)=C(C(N)=O)C(=O)[C@@H](N(C)C)[C@@H]3[C@@H](O)[C@@H]21.Cl.Cl.O [doxycycline hyclate]
- Structural based (HCI) [1]: +VE
- In vivo DILI ([2]; in vivo): +VE

SMILES: C[C@@H](CO)NC(=O)[C@@H]1C=C2c3cccc4[nH]cc(c34)C[C@H]2N(C)C1 [ergonovine maleate]
- Structural based (HCI) ([1]; In vitro Assay, ref Xu 2008): -VE
- In vivo DILI ([2]; ref Xu 2008): -VE

SMILES: C[C@]12CC[C@@H]3c4ccc(O)cc4CC[C@H]3[C@@H]1CC[C@@H]2O[C@@H]1O[C@H](C(=O)O)[C@@H](O)[C@H](O)[C@H]1O [estradiol 17b glucuronide]
- Structural based (HCI) [1]: -VE
- In vivo DILI ([2]; in vivo): +VE

SMILES: N#CC(C#N)=NNc1ccc(OC(F)(F)F)cc1 [fccp]
- Structural based (HCI) ([1]; In vitro Assay, ref Xu 2008): +VE
- In vivo DILI ([2]; ref O'Brien 2006): +VE
- In vivo DILI ([2]; ref Xu 2008): +VE

SMILES: CC(C(=O)O)c1cccc(Oc2ccccc2)c1 (stereo not shown) [fenoprofen sodium]
- Structural based (HCI) ([1]; In vitro Assay, ref Xu 2008): +VE
- In vivo DILI ([2]; ref Xu 2008): +VE

SMILES: CC(Cc1ccc(O)cc1)NCC(O)c1cc(O)cc(O)c1 (stereo not shown) [fenoterol hbr]
- Structural based (HCI) [1]: -VE
- In vivo DILI ([2]; in vivo): +VE

SMILES: O=c1[nH]c(=O)n([C@H]2C[C@H](O)[C@@H](CO)O2)cc1F [floxuridine]
- Structural based (HCI) ([1]; In vitro Assay, ref Xu 2008): -VE
- In vivo DILI ([2]; […]): +VE
- In vivo DILI ([2]; ref Xu 2008): +VE

SMILES: O.O=[N+]([O-])[O][Ga]([O][N+](=O)[O-])[O][N+](=O)[O-] [gallium nitrate hydrate]
- Structural based (HCI), In vitro Assay [1, 3]: -VE
- In vivo DILI [2, 4]: -VE

SMILES: COc1c(N2CCNC(C)C2)c(F)cc2c(=O)c(C(=O)O)cn(C3CC3)c12 (stereo not shown) [gatifloxacin]
- Structural based (HCI), In vitro Assay [1, 3]: -VE
- In vivo DILI [2, 4]: -VE

SMILES: O=c1[nH]c(=O)n([C@H]2C[C@H](O)[C@@H](CO)O2)cc1I [idoxuridine]
- Structural based (HCI), In vitro Assay [1, 3]: -VE
- In vivo DILI [2, 4]: +VE

SMILES: NC[C@H]1O[C@H](O[C@H]2[C@H](O)[C@@H](O[C@H]3O[C@H](CO)[C@@H](O)[C@H](N)[C@H]3O)[C@H](N)C[C@@H]2N)[C@H](O)[C@@H](O)[C@@H]1O [kanamycin sulfate]
- Structural based (HCI) ([1]; In vitro Assay, ref Xu 2008): -VE

SMILES: N=C(N)NCCC[C@H](N)C(=O)O [l-arginine]
- Structural based (HCI) ([1]; In vitro Assay, ref Xu 2008): -VE

SMILES: CCSCC[C@H](N)C(=O)O [l-ethionine]
- Structural based (HCI), In vitro Assay [1, 3]: -VE
- In vivo DILI [2, 4]: +VE

SMILES: C[C@H](CCC(=O)O)[C@H]1CC[C@H]2[C@@H]3CC[C@@H]4C[C@H](O)CC[C@]4(C)[C@H]3CC[C@]12C [lithocholic acid]
- Structural based (HCI), In vitro Assay [1, 3]: -VE

SMILES: CCn1cc(C(=O)O)c(=O)c2cc(F)c(N3CCNC(C)C3)c(F)c21 (stereo not shown) [lomefloxacin]
- Structural based (HCI) ([1]; In vitro Assay, ref Xu 2008): -VE

SMILES: O=C(O)/C=C\C(=O)O [maleic acid]
- Structural based (HCI) ([1]; In vitro Assay, ref Xu 2008): -VE

SMILES: COC(=O)Nc1nc2ccc(C(=O)c3ccccc3)cc2[nH]1 [mebendazole]
- Structural based (HCI) ([1]; In vitro Assay, ref Xu 2008): +VE

SMILES: CC(=O)O[C@]1(C(C)=O)CC[C@H]2[C@@H]3C[C@H](C)C4=CC(=O)CC[C@]4(C)[C@H]3CC[C@@]21C [medroxyprogesterone acetate]
- Structural based (HCI), In vitro Assay [1, 3]: -VE
- In vivo DILI [2, 4]: -VE

SMILES: CN1CCCCC1CCN1c2ccccc2Sc2ccc([S+](C)[O-])cc21 (stereo not shown) [mesoridazine besylate]
- Structural based (HCI), In vitro Assay [1, 3]: -VE
- In vivo DILI [2, 4]: +VE

SMILES: COc1cccc(OC)c1C(=O)N[C@@H]1C(=O)N2[C@@H]1SC(C)(C)[C@@H]2C(=O)O [methicillin sodium]
- Structural based (HCI), In vitro Assay [1, 3]: -VE

SMILES: COc1ccc(OC)c(C(O)C(C)N)c1 (stereo not shown) [methoxamine]
- Structural based (HCI), In vitro Assay [1, 3]: -VE
- In vivo DILI [2, 4]: -VE

SMILES: CC[C@@H](CO)NC(=O)[C@@H]1C=C2c3cccc4[nH]cc(c34)C[C@H]2N(C)C1 [methylergonovine maleate]
- Structural based (HCI), In vitro Assay [1, 3]: -VE

SMILES: C[C@H]1C(=O)O[C@@H]2CCN3CC=C(COC(=O)[C@](C)(O)[C@]1(C)O)[C@H]23 [monocrotaline]
- Structural based (HCI), In vitro Assay [1]: -VE
- In vivo DILI ([2]; in vivo): +VE

SMILES: C=C1CC[C@@]2(O)[C@H]3Cc4ccc(O)c5c4[C@@]2(CCN3CC2CC2)[C@H]1O5 [nalmefene]
- Structural based (HCI), In vitro Assay [1, 3]: -VE
- In vivo DILI [2, 4]: -VE

SMILES: CCCOc1ccc2[nH]c(NC(=O)OC)nc2c1 [oxybendazole]
- Structural based (HCI), In vitro Assay [1, 3]: -VE
- In vivo DILI [2, 4]: +VE

SMILES: NCCC(O)(P(=O)(O)O)P(=O)(O)O [pamidronate]
- Structural based (HCI) ([1]; In vitro Assay, ref Xu 2008): -VE

SMILES: NC[C@@H]1O[C@H](O[C@H]2[C@@H](O)[C@H](O[C@@H]3[C@@H](O)[C@H](N)C[C@H](N)[C@H]3O[C@H]3O[C@H](CO)[C@@H](O)[C@H](O)[C@H]3N)O[C@@H]2CO)[C@H](N)[C@@H](O)[C@@H]1O [paromomycin]
- Structural based (HCI), In vitro Assay [1, 3]: -VE

SMILES: CC1(C)S[C@@H]2[C@H](NC(=O)Cc3ccccc3)C(=O)N2[C@H]1C(=O)O [penicillin g]
- Structural based (HCI) ([1]; In vitro Assay, ref Xu 2008): -VE

SMILES: CCOc1ccc(NC(C)=O)cc1 [phenacetin]
- Structural based (HCI) ([1]; In vitro Assay, ref Xu 2008): +VE

SMILES: C[C@]12C=CC(=O)C=C1CC[C@@H]1[C@@H]2C(=O)C[C@@]2(C)[C@H]1CC[C@]2(O)C(=O)CO [prednisone]
- Structural based (HCI) ([1]; In vitro Assay, ref Xu 2008): -VE

SMILES: CN(C)CCCN1c2ccccc2Sc2ccccc21 [promazine]
- Structural based (HCI), In vitro Assay [1, 3]: -VE
- In vivo DILI [2, 4]: -VE

SMILES: COc1ccc(C[C@H](N)C(=O)N[C@H]2[C@@H](O)[C@H](n3cnc4c(N(C)C)ncnc43)O[C@@H]2CO)cc1 [puromycin]
- Structural based (HCI), In vitro Assay [1, 3]: +VE
- In vivo DILI [2, 4]: +VE

SMILES: CC1=C(/C=C/C(C)=C/C=C/C(C)=C/C(=O)O)C(C)(C)CCC1 [retinoic acid]
- Structural based (HCI) ([1]; In vitro Assay, ref Xu 2008): +VE
- In vivo DILI ([2]; […]): +VE
- In vivo DILI ([2]; ref Xu 2008): +VE

SMILES: CCCCNc1ccc(C(=O)OCCN(C)C)cc1 [tetracaine]
- Structural based (HCI), In vitro Assay [1, 3]: -VE
- In vivo DILI [2, 4]: -VE

SMILES: CN1CCN(CC/C=C2/c3ccccc3Sc3ccc(S(=O)(=O)N(C)C)cc32)CC1 [thiothixene]
- Structural based (HCI) ([1]; In vitro Assay, ref Xu 2008): -VE

SMILES: Nc1ncnc2c1ncn2[C@@H]1O[C@H](CO)[C@@H](O)[C@@H]1O [vidarabine]
- Structural based (HCI) ([1]; In vitro Assay, ref Xu 2008): -VE
